Assay results reported in patent US9956232B2, “Dialkyl-phosphinoyl-alkane (Dapa) compounds and compositions for treatment of lower gastrointestinal tract disorders” (priority 2016, dated 2018).
Values joined by “and” are separate entries in the source; they are usually repeats but may differ in a detail not shown here. Equal values may be shown once. “Also recorded” adds a separate entry of the source.

Key:
TRPM8 [1] = target: T1, TRPM8 (Homo sapiens, UniProt Q7Z2W7); assay: TRPM8 receptor agonist assay (Fluo-8 calcium, FLIPR); format: cell-based; set-up: host or cells: CHO cells, stably transfected; details: for ×Menthol: TRPM8 relative potency as repeated in Table 4; for Relative Potency: relative to menthol = 1.0 (Table 2)
Protocol: Compounds were tested on (CHO) cells stably transfected with human TRPM8 cDNAs using a Fluo-8 calcium kit and a Fluorescence Imaging Plate Reader ([…]™) instrument. […] Solutions were prepared by diluting stock solutions in a HEPES-buffered physiological saline (HBPS) solution. Test compound and control formulations were loaded in polypropylene or glass-lined 384-well plates, and placed into the FLIPR instrument (Molecular Devices Corporation, Union City, Calif., USA). Each was tested at 8 concentrations with n=4 replicates per determination. […] For […]™ assay, cells were plated in 384-well black wall, flat clear-bottom microtiter plates (Type: BD Biocoat Poly-D-Lysine Multiwell Cell Culture Plate) at approximately 30,000 cells per well. Cells were incubated at 37° C. overnight to reach a near confluent monolayer appropriate for use in a fluorescence assay. The test procedure was to remove the growth media and to add 40 μL of HBPS containing Fluo-8 for 30 minutes at 37° C. 10 μL of test compound, vehicle, or control solutions in HBPS were added to each well and read for 4 minutes. Concentration-response data were analysed via the FLIPR Control software that is supplied with the FLIPR System (MDS-AT) and fitted to a Hill equation.
Target sequence in this assay (Q7Z2W7 whole entry): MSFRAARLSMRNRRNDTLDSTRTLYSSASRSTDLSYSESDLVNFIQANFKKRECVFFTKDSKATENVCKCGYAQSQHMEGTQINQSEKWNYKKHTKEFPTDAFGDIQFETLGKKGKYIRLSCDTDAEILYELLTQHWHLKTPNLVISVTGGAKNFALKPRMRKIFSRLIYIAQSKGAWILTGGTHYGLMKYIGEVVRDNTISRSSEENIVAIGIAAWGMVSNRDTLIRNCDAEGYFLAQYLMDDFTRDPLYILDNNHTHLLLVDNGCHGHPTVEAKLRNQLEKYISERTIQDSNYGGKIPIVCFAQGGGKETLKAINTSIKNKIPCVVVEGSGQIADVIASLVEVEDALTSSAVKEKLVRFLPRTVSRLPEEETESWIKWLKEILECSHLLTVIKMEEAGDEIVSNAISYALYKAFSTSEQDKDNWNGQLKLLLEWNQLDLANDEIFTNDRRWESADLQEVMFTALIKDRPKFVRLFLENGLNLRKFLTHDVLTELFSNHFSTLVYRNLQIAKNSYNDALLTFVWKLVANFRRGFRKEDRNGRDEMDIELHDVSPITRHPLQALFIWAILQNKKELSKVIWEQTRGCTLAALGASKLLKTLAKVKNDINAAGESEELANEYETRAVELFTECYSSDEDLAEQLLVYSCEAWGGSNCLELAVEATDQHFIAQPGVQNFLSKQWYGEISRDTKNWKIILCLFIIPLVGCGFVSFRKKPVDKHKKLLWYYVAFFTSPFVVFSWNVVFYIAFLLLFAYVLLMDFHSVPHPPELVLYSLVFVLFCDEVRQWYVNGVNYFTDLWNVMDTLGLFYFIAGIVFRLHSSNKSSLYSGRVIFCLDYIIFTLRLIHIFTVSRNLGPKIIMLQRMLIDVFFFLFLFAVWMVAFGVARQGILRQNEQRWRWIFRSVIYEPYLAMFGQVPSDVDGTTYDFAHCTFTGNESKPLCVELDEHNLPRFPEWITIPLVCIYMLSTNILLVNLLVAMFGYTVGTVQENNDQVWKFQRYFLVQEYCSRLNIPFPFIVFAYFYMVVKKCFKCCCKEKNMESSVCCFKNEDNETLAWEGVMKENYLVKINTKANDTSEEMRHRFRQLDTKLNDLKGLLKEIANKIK

[2] = system: pentobarbital-anesthetized male rats; assay: Shaking frequency (wet-dog shaking) of anesthetized rats after intravenous, perioral or topical delivery; format: in vivo; details: anesthetized rat; for Shaking frequency, Intravenous: 2 mg/kg i.v., 2nd trial, counted for 15 min; for Shaking frequency, Perioral: 20 mg/kg by oral gavage, counted for 40 min; for Shaking frequency, Topical: 20 μL pure compound on shaved abdominal skin, counted for 1 hr
Protocol: In experiments conducted here, test compounds were evaluated for “wet-dog shaking” as a model of cooling sensation. Using a standardized procedure, test compounds were compared in their ability to stimulate the shaking response by intravenous injection into a cannulated femoral vein, by perioral administration, and by topical delivery to the abdominal skin.
Each rat was given two injections with a 30 min interval. […] Shaking frequency was counted for 15 min after injection. Shaking was observed immediately after i.v. injection and at least 78% of the total shakes occurred in the first 5 min after injection. The response in the second trial was at least as robust in the first trial, showing the lack of desensitization.
Test compounds were dissolved in saline and administered by oral gavage to pentobarbital-anesthetized male albino rats at 20 mg/kg at a volume of 0.1 mL/100 g body weight [N=3 to 4 rats per compound]. Shaking was counted over a 40 min period and recorded at 10-min intervals.
For topical application of DAPA, the abdominal skin of the anesthetized rat was shaved and 20 μL of the pure DAPA was applied with a micropipette onto a ˜1 cm diameter circle of skin, enclosed with a ring of cream [Baby cream “Nevskaya kosmetika Detskyi” Nevskaya Kosmetika Inc., Saint-Petersburg 192029], as shown in FIG. 5D. The number of shakes was counted for 1 hr after application.

TRPA1 = TRPA1 (Homo sapiens, UniProt O75762); assay: TRPA1 selectivity assay, calcium entry in transfected CHO cells; format: cell-based; set-up: expressed in transfected cells; host or cells: CHO cells; details: maximum tested concentration 100 μM
Text: (§1) The selectivity of test compounds were examined on TRPV1 channels (human TRPV1 gene expressed in HEK293 cells) and TRPA1 channels (human TRPA1 gene expressed in CHO cells). The test cells were Chinese Hamster Ovary (CHO) cells or Human Embyronic Kidney (HEK) 293 cells transfected with human TRPV1 or TRPA1 cDNAs.
(§2) The ordinate is given in Relative Fluorescence Units; % of maximum, which measure calcium entry into the transfected cells and the abscissa is the logarithm of the concentration of the test compound.

TRPV1 = TRPV1 (Homo sapiens, UniProt Q8NER1); assay: TRPV1 selectivity assay, calcium entry in transfected HEK293 cells; format: cell-based; set-up: expressed in transfected cells; host or cells: HEK293 cells; details: maximum tested concentration 100 μM
Text: as §1, §2

[3] = system: heat-induced edema in the anesthetized rat paw; assay: Heat-induced edema in the anesthetized rat paw; format: in vivo; details: 20 mg/mL, 0.3 mL per paw, 30 min before 58° C. water 1 min; relative to contralateral paw
Text: Inflammation is defined as the reaction of vascularized living tissue to local injury [Cotran, R S. 1989. Inflammation and repair. In Robbins: Pathologic Basis of Disease, ed. S. L. Robbins, R. S. Cotran, V. Kumar, 2:39-86. Philadelphia: Saunders. 4th ed.]. The characteristic signs of inflammation are redness, swelling, heat, and pain (and loss of function). The anti-inflammatory properties of the DAPA compounds were studied in a model of heat-induced vascular leakage [Wei et al. Method of inhibiting inflammatory response. U.S. Pat. No. 4,801,612; Wei et al., Anti-inflammatory peptide agonists. Annual Review Pharmacol Toxicol. 33:9-108, 1993]. When the paws of pentobarbital-anesthetized rats (200 to 300 g body weight) are immersed in 58° C. water for 1 min, the normal paw volume of about 1.8 mL was increased by ˜88% within 30 min, the swelling being due to an increase in water content of the paw.
Test compounds were dissolved in 20% water-80% R-1,2-propanediol at 20 mg/mL. The solutions were applied to the paw skin of pentobarbital-anesthetized rats (200 to 300 g body weight) at 0.3 mL per paw, using a syringe attached to a blunt 21 gauge needle covered at its tip with a piece of polyethylene 60 tubing. After distributing the solution over the paw, the paw was tightly enclosed in a plastic finger cut from a disposable glove. The contralateral paw [control] received only the vehicle. Thirty min after application, both paws were immersed in 58° C. water for 1 min. Thirty min after immersion, both paws were cut at ankle joint with scissors and weighed.
This degree of inhibition is significant for tissue protection as the injury stimulus is of supra-maximal intensity. The DAPA-2-5 effect was apparent to the untrained observer.

[4] = Repeated-dose toxicity in male rats (organ weights, histology); format: in vivo, rat; details: 30 mg/kg subcutaneously daily for 7 days, male rats
Strains TA 98 and TA100 = assay: Ames test; format: cell-based; details: TA 98 and TA100, with and without liver activation
Protocol: Preliminary toxicological studies were conducted on DAPA-2-5 and DAPA-2-7.

TRPM8 [5] = target: T1, TRPM8; assay: TRPM8 assay of DIPA-1-10 at King's College, different assay conditions; format: cell-based
Text: [Table 2] […] The data for DIPA-1-10 is not included in the Table 2 or Figure because it was obtained under different assay conditions.
Target sequence in this assay (Q7Z2W7 whole entry, species assumed): as the sequence (Q7Z2W7 whole entry) above

TRPM8 [6] = target: T1, TRPM8; details: literature; cited from earlier work
Target sequence in this assay (Q7Z2W7 whole entry, species assumed): as the sequence (Q7Z2W7 whole entry) above

isolated mouse vagus = assay: Capsaicin-induced depolarization of the isolated vagus nerve
Text: An isolated vagus nerve model was developed at Imperial College, London, U.K. [Birrell et al. TrpA1 agonists evoke coughing in guinea pig and human volunteers. Amer. J. respiratory and critical care medicine 180, 1042-7, 2009; Patel, H. J. et al. Inhibition of guinea-pig and human sensory nerve activity and the cough reflex in guinea-pigs by cannabinoid (CB2) receptor activation. Brit. J. Pharmacol. 140, 261-8, 2003]. In this in vitro assay, segments of the mouse vagus nerve are placed on a platform and the electrical activity is recorded after topical application of capsaicin. Capsaicin is a known irritant that elicits pain when it is applied to the skin and it will depolarize the isolated vagus. […] The similar effect of DAPA-2-5 in this test system was published in U.S. Ser. No. 14/55,042. Briefly, segments of vagus nerve, caudal to the nodose ganglion, were removed from mice with fine forceps and segments placed in oxygenated Krebs solution and bubbled with 95% O2/5% CO2. The desheathed nerve trunk was mounted in a ‘grease-gap’ recording chamber and constantly superfused with Krebs solution with a flow rate of approximately 2 mL/min, and the electrical activity of the nerve monitored with electrodes. The temperature of the perfusate was kept constant at 37° C. by a water bath. Nerve depolarizations were induced by superfusion of the nerve with capsaicin (1 μM). After two reproducible depolarization responses to capsaicin, DIPA-1-7 was applied at 1 mg/mL for 10 minutes in the perfusate followed by capsaicin.

Chain of TRPV1 (Q8NER1 whole entry): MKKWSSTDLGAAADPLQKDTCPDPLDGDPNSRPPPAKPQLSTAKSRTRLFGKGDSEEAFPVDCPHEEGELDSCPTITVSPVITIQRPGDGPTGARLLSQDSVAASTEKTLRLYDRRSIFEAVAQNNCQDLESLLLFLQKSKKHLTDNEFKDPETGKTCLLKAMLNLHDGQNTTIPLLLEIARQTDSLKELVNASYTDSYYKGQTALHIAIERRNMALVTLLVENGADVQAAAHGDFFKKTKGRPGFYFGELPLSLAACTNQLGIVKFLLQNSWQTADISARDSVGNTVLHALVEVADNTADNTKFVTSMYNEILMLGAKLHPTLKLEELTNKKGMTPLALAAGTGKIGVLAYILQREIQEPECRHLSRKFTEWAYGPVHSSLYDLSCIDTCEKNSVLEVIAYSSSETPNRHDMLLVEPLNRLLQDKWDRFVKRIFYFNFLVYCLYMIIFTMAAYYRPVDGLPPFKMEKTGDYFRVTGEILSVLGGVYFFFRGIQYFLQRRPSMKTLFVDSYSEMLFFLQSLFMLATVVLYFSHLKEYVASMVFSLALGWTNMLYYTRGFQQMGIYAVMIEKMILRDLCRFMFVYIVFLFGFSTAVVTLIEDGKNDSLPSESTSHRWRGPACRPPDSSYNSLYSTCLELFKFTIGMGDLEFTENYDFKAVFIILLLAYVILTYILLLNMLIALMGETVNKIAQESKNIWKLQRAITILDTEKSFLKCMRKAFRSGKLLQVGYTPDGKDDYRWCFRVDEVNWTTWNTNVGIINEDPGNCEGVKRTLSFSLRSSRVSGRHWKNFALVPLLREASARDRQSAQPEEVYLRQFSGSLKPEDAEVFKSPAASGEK
Chain of TRPA1 (O75762 whole entry): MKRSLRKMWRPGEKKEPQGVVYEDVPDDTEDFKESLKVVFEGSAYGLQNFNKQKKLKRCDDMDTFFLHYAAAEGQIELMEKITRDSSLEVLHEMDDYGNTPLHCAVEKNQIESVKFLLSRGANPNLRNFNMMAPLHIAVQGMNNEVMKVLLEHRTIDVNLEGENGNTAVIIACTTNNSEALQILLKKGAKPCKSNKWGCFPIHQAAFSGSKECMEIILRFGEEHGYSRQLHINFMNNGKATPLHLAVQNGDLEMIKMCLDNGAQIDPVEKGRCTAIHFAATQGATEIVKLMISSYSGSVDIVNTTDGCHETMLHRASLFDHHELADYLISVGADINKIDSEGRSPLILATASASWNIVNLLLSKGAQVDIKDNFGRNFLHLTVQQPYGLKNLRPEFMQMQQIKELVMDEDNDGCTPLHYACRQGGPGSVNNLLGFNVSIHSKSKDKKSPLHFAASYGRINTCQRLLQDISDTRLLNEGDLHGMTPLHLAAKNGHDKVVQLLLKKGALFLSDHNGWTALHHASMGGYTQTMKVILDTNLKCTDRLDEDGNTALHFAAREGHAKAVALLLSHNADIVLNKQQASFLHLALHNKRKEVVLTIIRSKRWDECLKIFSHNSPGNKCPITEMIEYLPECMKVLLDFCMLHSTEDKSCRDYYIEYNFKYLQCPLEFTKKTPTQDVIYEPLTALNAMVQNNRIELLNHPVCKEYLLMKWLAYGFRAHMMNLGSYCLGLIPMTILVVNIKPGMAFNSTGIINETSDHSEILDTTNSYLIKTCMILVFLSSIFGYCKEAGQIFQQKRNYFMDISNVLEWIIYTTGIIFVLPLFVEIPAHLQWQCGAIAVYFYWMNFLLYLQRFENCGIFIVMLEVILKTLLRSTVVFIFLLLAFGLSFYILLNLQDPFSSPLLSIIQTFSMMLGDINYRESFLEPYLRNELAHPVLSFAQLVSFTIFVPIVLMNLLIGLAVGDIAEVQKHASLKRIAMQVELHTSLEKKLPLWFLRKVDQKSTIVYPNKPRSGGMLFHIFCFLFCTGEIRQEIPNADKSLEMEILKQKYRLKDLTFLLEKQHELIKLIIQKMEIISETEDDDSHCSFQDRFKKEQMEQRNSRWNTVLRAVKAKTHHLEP

Structure (SMILES)	×Menthol (TRPM8 [1])	Relative Potency (TRPM8 [1])	Shaking frequency, Intravenous [2] [shakes]	Shaking frequency, Perioral [2]	Shaking frequency, Topical [2] [shakes]	Inhibition of Heat Edema (±S.E.M.) [3] [%]	other results
CCCCCP(=O)(C(C)C)C(C)C [DIPA-1-5, 1-Diisopropyl-phosphinoyl-pentane]	0.7	0.7	19 ± 3	86 shakes and 86 ± 7 shakes	138 ± 15	–	–
CCCCCCCCP(=O)(C(C)C)C(C)C [DIPA-1-8, 1-Diisopropyl-phosphinoyl-octane]	5.4	5.4	14 ± 2	0 shakes	7 ± 2	−5.0 ± 2.7	agonist or antagonist activity on TRPA1 channels (TRPA1): did not exhibit significant agonist on antagonist activity; agonist or antagonist activity on TRPA1 channels (TRPA1; listed as DAPA-1-8): devoid of agonist or antagonist activities; agonist or antagonist activity on TRPV1 channels (TRPV1): did not exhibit significant agonist on antagonist activity; agonist or antagonist activity on TRPV1 channels (TRPV1; listed as DAPA-1-8): devoid of agonist or antagonist activities
CCCCCP(=O)(CC(C)C)CC(C)C [DAPA-3-1, 1-Di(iso-butyl) phosphinoyl-pentane]	–	0.2	–	–	–	–	–
CCCCCCCP(=O)(C(C)CC)C(C)CC (centres unmarked) [DAPA-2-7, 1-Di(sec-butyl) phosphinoyl-heptane]	3.4	3.4	15 ± 2	0 shakes	0	5.2 ± 2.1	body or organ weights vs vehicle [4]: no significant differences in body or organ weights; heart and liver histology [4]: normal; mutagenicity in the Ames test (Strains TA 98 and TA100): Neither of these compounds was mutagenic
CCCCP(=O)(C(C)CC)C(C)CC (centres unmarked) [DAPA-2-4, 1-Di(sec-butyl) phosphinoyl-butane]	0.3	0.3	8 ± 2	0 shakes	0	–	–
CCCCCCCCCCP(=O)(C(C)C)C(C)C [DIPA-1-10]	–	–	–	–	–	–	potency × menthol (TRPM8 [5]): 1.7 ×; times less active than DIPA-1-9 (TRPM8 [5]): 2.4 ×
CCC(C)P(=O)(CCC(C)C)C(C)CC (centres unmarked) [DAPA-3-2, 1-Di(sec-butyl) phosphinoyl-3-methyl-butane]	–	0.9	–	–	–	–	–
CCCCCCP(=O)(C(C)CC)C(C)CC (centres unmarked) [DAPA-2-6, 1-Di(sec-butyl) phosphinoyl-hexane]	4.7	4.7	30 ± 3	0 shakes	0	2.9 ± 1.4	–
COc1cc(CNC(=O)CCCC/C=C/C(C)C)ccc1O [capsaicin, reference compound]	–	–	–	–	–	–	agonist or antagonist activity on TRPV1 channels (TRPV1): active
CCCCCCCCP(=O)(C(C)CC)C(C)CC (centres unmarked) [DAPA-2-8, 1-Di(sec-butyl) phosphinoyl-octane]	2.9	2.9	2.	0 shakes	0	–	–
O=C1NC(c2cccc([N+](=O)[O-])c2)=CCN1c1ccccc1O [Icilin]	–	–	–	–	–	–	TRPM8 agonist potency × menthol (TRPM8 [6]): 200 ×
CCCCCCP(=O)(C(C)C)C(C)C [DIPA-1-6, 1-Diisopropyl-phosphinoyl-hexane]	1.6	1.6	39 ± 4	56 shakes and 56 ± 5 shakes	69 ± 8	–	–
CCCCCCCP(=O)(C(C)C)C(C)C [DIPA-1-7, 1-Diisopropyl-phosphinoyl-heptane]	5.4	5.4	25 ± 3	36 shakes and 36 ± 4 shakes	79 ± 8	−1.5 ± 2.0	agonist or antagonist activity on TRPA1 channels (TRPA1): did not exhibit significant agonist on antagonist activity; agonist or antagonist activity on TRPV1 channels (TRPV1): did not exhibit significant agonist on antagonist activity; also recorded: slight non-dose-dependent agonist action; inhibition at 1000 µg/mL (isolated mouse vagus; isolated TRPM8 knock-out mouse vagus, 1 mg/mL, capsaicin 1 μM, read-out: percent inhibition of capsaicin-induced depolarization): ~20%; depolarization evoked by the compound by itself (isolated mouse vagus; isolated mouse vagus, no capsaicin): did not evoke depolarization; percent inhibition of capsaicin-induced depolarization (isolated mouse vagus; isolated normal (wild type) mouse vagus, 1 mg/mL superfused 10 min, capsaicin 1 μM): about 75%
